Assay results from article PMC3914206.

Experiments:
[1] = biological target: T1, panel of 442 kinases (Homo sapiens, UniProt Q9UL54); assay type: binding; conditions: kinase TAOK2; compound concentration 10 µM
T1 construct: purchased KINOMEscan
T1 sequence (Q9UL54 1-1235): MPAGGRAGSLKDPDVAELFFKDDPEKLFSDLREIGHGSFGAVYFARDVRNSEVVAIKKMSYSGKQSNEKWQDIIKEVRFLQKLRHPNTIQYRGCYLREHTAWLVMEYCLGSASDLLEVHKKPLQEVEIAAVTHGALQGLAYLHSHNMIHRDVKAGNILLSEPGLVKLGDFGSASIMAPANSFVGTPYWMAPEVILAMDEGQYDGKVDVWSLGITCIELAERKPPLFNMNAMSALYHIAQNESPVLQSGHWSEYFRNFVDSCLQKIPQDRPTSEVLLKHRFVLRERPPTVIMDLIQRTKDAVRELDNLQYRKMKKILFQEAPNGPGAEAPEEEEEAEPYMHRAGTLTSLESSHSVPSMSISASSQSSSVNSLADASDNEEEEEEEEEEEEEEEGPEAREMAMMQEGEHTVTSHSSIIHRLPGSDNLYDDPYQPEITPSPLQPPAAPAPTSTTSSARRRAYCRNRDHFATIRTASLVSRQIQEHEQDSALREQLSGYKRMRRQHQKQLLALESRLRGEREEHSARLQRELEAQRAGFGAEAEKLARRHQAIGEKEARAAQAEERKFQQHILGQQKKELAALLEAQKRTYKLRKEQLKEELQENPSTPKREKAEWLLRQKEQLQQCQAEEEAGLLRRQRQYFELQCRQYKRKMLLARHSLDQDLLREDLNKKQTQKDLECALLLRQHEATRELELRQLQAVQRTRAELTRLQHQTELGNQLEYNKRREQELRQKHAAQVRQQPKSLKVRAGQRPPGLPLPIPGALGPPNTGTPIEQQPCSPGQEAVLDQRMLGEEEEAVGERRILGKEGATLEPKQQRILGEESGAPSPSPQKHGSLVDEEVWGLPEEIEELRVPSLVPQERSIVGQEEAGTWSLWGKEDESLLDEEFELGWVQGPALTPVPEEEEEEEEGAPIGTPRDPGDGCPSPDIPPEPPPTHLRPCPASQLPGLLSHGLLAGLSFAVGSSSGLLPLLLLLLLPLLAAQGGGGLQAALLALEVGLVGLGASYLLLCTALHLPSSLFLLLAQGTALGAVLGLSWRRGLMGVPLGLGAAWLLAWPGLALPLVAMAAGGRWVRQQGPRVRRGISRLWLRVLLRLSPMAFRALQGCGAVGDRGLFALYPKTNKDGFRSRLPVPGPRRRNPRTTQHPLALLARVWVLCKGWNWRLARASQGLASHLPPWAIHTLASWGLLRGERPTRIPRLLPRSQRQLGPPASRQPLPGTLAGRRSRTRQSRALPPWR
Source text: (§1) We assessed the selectivity of members of this scaffold using the KINOMEscan methodology across a near comprehensive panel of 442 kinases [[18,27]].

[2] = biological target: T2, panel of 442 kinases (Homo sapiens, UniProt P42336, H1047L); assay type: binding; conditions: Compound Concentration 10 µM
T2 construct: purchased KINOMEscan
T2 sequence (P42336 whole entry H1047L): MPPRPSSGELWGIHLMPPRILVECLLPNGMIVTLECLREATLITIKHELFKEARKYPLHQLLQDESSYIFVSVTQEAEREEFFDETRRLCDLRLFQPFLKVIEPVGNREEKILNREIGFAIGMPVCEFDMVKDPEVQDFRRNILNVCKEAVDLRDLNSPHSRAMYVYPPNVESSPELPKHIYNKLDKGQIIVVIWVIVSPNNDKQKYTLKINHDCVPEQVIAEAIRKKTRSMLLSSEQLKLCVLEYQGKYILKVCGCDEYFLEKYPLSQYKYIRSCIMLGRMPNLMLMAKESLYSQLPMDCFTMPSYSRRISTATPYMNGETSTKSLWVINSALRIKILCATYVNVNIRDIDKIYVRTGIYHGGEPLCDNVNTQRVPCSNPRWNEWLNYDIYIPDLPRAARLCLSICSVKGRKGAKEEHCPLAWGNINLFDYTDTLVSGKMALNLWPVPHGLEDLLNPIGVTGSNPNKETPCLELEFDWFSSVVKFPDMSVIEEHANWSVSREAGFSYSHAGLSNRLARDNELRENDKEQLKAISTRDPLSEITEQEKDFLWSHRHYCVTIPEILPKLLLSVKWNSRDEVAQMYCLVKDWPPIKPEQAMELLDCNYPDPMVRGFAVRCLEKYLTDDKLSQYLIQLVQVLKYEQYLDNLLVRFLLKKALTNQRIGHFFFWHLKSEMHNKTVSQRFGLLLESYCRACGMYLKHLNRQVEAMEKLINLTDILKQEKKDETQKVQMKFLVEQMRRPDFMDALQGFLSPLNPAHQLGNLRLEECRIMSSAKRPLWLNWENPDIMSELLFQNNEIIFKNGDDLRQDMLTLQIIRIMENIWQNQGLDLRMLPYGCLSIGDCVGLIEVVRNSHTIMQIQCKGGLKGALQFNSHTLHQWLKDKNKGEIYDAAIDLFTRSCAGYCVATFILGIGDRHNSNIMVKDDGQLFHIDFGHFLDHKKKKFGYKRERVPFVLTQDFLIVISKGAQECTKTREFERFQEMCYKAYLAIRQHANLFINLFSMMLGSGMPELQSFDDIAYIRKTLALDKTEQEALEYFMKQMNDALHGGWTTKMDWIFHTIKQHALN
Source text: as §1

SMILES	% Ctrl, TAOK2 [1] [% Ctrl]	KINOMEscan: PIK3CA(H1047L) [2]
COc1cc(C(=O)N2CCC(N3CCN(C)CC3)CC2)ccc1Nc1ncc2c(n1)N(C)c1ccccc1C(=O)N2C [15 (LRRK2-IN-1)]	65	20
COc1cc(C(=O)N2CCC(N3CCN(C)CC3)CC2)ccc1Nc1ncc2c(n1)N1CCc3cccc(c31)C(=O)N2C [Compound 24]	100	94
COc1cc(C(=O)N2CCC(N3CCN(C)CC3)CC2)ccc1Nc1ncc2c(n1)N(C1CCCC1)c1ccccc1C(=O)N2C [Compound 25, 11-cyclopentyl-2-((2-methoxy-4-(4-(4-methylpiperazin-1-yl)piperidine-1-carbonyl)phenyl)amino)-5-methyl-5H-benzo[e]pyrimido[5,4-b][1,4]diazepin-6(11H)-one]	74	100
CCOc1cc(C(=O)N2CCC(N3CCN(C)CC3)CC2)ccc1Nc1ncc2c(n1)N(C1CCCC1)c1ccccc1C(=O)N2C [Compound 26]	78	90
